Measured values taken from patent publication US20240207265A1, “TREATMENT OF CNS DISEASES WITH sGC STIMULATORS” (Tisento Therapeutics Inc., priority 2021, published 2024).
pEC50: −log10 of the molar value.

Key:
sGC = assay: cGMP neuronal cell-based assay (rat primary neurons); details: rat primary hippocampal neurons, DETA-NO 10 μM or 30 μM, cGMP by LC-MS/MS; read-out: sGC Neuron EC50
Experimental: Rat primary neurons were isolated from fetuses of 18-day pregnant Sprague-Dawley females. The fetuses were collected in Hanks' balanced salt solution (HBSS) and brains were rapidly removed. The cerebral hippocampi were isolated and mechanically fragmented. Further tissue digestion was performed with 0.25% (wt/vol) trypsin solution in HBSS without Ca2+ and Mg2+ for 15 min at 37° C. After trypsination, cells were washed and resuspended in neurobasal medium supplemented with 0.5 mM L-glutamine, 12.5 uM glutamic acid, 2% B-27 and 100 U/mL penicillin, and 100 μg/mL streptomycin. Cells were plated at a density of 26×10^3 or 3×10^4 or 4×10^4 cells/well in a poly-D-lysine coated 384-well flat clear-bottom plate (Corning Cat No 354662). Cells were incubated 6-7 days at 37° C. in a humidified chamber with 5% CO2. Media was removed and cells were washed 1× with HBSS containing Ca2+ and Mg2+, and replaced with 40 uL HBSS containing 0.5 mM IBMX, and incubated for 15 minutes at 37° C. 10 uL of a 5× stock of test compounds with diethylenetriamine NONOate (DETA-NO) was added. Final concentration of DETA-NO was either 10 μM or 30 μM. Cells were incubated for 20 min at 37° C. Medium was removed, 50 uL of ice-cold 10% acetic acid was added, and incubated for 60 minutes at 4° C. Following centrifugation at 4° C. for 5 minutes at 1000×g to pellet cell debris, the supernatant was aspirated to a clean plate and the samples were analyzed for cGMP content. cGMP concentrations were determined from each sample using LC-MS/MS.
(§1) Concentration response data were analyzed using a 4-parameter fit (log (agonist) vs. response-variable slope). The EC50 was interpolated from the curve fit and is defined as the concentration at which the compound elicits 50% of its maximal response. When the experiment was carried out multiple times for a given compound, the geometrical mean of all experiments is reported.

sGC enzyme = assay: cGMP GloSensor cell-based assay, 384-well format (HEK293); parameters: species or system human; details: HEK293 GloSensor 40F cGMP cells, 10 μM DETA-NONOate, geometrical mean; read-out: Glo EC50
Source text: Human embryonic kidney cells (HEK293) cells expressing GloSensor™ 40F cGMP (Part No: CS182801, Promega) were used to evaluate the activity of test compounds. The luminescent biosensors (engineered luciferase) that were incorporated into these cells detect cGMP formed by the compounds stimulating the sGC enzyme and emit luminescence.
cGMP GloSensor cells were maintained in Dulbecco's Modification of Eagle's Medium (DMEM) supplemented with fetal bovine serum (FBS, 10% final) and hygromycine (200 ug/ml). The day before assay, cells were plated in DMEM with 10% FBS in a 50 μL volume at a density of 1.5×10^4 cells/well in a poly-D-lysine coated 384-well flat white-bottom plate (Corning Cat No 35661). Cells were incubated overnight at 37° C. in a humidified chamber with 5% CO2. The next day, medium was removed and cells were replaced with 40 ul/well of GloSensor™, 2 mM (Promega Cat No E1291). Cells were treated for 90 minutes at 25° C. to allow the substrate to equilibrate in the cells. Test compounds and Diethylenetriamine NONOate (DETA-NONOate) was diluted to 3 mM (20×) in serum-free CO2 independent medium and serially diluted at 4× dilutions to create 5× dose curve from which 10 ul was added to the wells (x μM concentration for test compound solution and 10 μM concentration for DETA-NONOate solution; wherein x is one of the following final concentrations: 30 μM, 7.5 μM, 1.9 μM, 469 nM, 117 nM, 29.3 nM, 7.3 nM, 1.83 nM, 0.46 nM, 0.11 nM, 0.03 nM) For the kinetics studies, luminescense was measured right away for 0.2 sec per well with Envision (Perkin Elmer). For endpoint SAR screening, data were collected after 55 min incubation at room temperature.
as §1

[1] = Rat cerebrospinal fluid (CSF) pharmacokinetics; format: in vivo; details: male, Sprague-Dawley; rat CSF/unbound plasma, PO 3 mg/kg
Experimental: PK in rats was determined following oral dosing. For the oral (PO) experiments, a group of 6 male Sprague-Dawley rats with an indwelling catheter placed in the cisterna magna were used. The PO group was dosed with 3.0, or 10 mg/kg of a compound formulated as a solution in PEG400 or suspension in 0.5% Tween 80 and 0.5% Methylcellulose in water. PO doses were administered by oral gavage and delivered to the stomach using a syringe and gavage tube. Following oral dosage administration, the gavage tube was flushed with approximately 0.5 mL of water to ensure complete delivery of the full dose.
Plasma samples were collected as follows: samples of CSF and blood were collected at 1 hour, 2, and optionally at 4 hours post-dosing. CSF samples (0.05 mL) were collected through the intracisternal catheter. Blood samples (0.25 mL) were collected through tail nick sampling. These samples were kept on ice until processed for plasma. Blood samples were centrifuged at 3200 rpm for 5 minutes at approximately 5° C. within 1 hour of collection. Plasma was directly transferred to individual Eppendorf tubes (0.125 mL). Plug caps were placed on the tubes and the tubes frozen at approximately −70° C. and stored until analysis. Plasma and CSF was collected and analyzed for the presence of a compound.
The compound in question and the internal standard were extracted from plasma by precipitation and from CSF by either precipitation or dilution. Samples were analyzed using liquid chromatography (LC) with tandem mass spectrometric detection (MS/MS) using electrospray ionization. The standard curve ranged from 0.1 to 1000 ng/mL. Results of the compounds described herein in this assay are illustrated in Table G below (for a 10 mg/kg dose and/or 3 mg/kg of the compound). Compound concentrations from several animals were combined to give the geometrical mean at each specific dosage and timepoint.
Kp,uu is defined as the concentration ratio of unbound drug in CSF to unbound drug in plasma. Unbound drug in plasma (or free plasma concentration) is calculated by multiplying the total plasma concentration by the unbound fraction as determined by plasma protein binding. The CSF concentration is then divided by the free plasma concentration to determine the Kp,uu. (See e.g., Di et al., J. Med. Chem., 56, 2-12 (2013))

SMILES	pEC50 (sGC)	pEC50 (sGC enzyme)	Kp uu at 1 h [1]	Kp uu at 2 h [1]	Kp uu at 4 h [1]
Cc1cnc(-c2cn3ccnc3c(Cc3ccccc3F)n2)nc1O [Compound I-8, 2-(8-(2-fluorobenzyl)imidazo[1,2-a]pyrazin-6-yl)-5-methylpyrimidin-4-ol]	–	< 6.00	–	–	–
Oc1nc(-c2cn3ncnc3c(Cc3cccc(F)c3)n2)ncc1F [Compound I-11, 5-Fluoro-2-(8-(3-fluorobenzyl)-[1,2,4]triazolo[1,5-a]pyrazin-6-yl)pyrimidin-4-ol]	–	6.00 to 7.00	–	–	–
Oc1nc(-c2cn3ccnc3c(Cc3cc(F)cc(F)c3)n2)ncc1F [Compound I-7, 2-(8-(3,5-Difluorobenzyl)imidazo[1,2-a]pyrazin-6-yl)-5-fluoropyrimidin-4-ol]	≥ 7.00	6.00 to 7.00	–	–	–
Oc1nc(-c2cn3ncnc3c(Cc3cccc(F)c3F)n2)ncc1F [Compound I-10, 2-(8-(2,3-Difluorobenzyl)-[1,2,4]triazolo[1,5-a]pyrazin-6-yl)-5-fluoropyrimidin-4-ol]	–	6.00 to 7.00	–	–	–
Oc1nc(-c2cn3c(F)cnc3c(Cc3ccccc3F)n2)ncc1F [Compound I-9]	≥ 7.00	6.00 to 7.00	–	–	–
Oc1nc(-c2cn3ncnc3c(Cc3cc(F)cc(F)c3)n2)ncc1F [Compound I-13, 2-(8-(3,5-Difluorobenzyl)-[1,2,4]triazolo[1,5-a]pyrazin-6-yl)-5-fluoropyrimidin-4-ol]	–	6.00 to 7.00	–	–	–

Other lines, results leading:

pEC50 (sGC)	pEC50 (sGC enzyme)	Kp uu at 1 h [1]	Kp uu at 2 h [1]	Kp uu at 4 h [1]	SMILES
≥ 7.00	6.00 to 7.00	–	–	–	Oc1nc(-c2cn3ncnc3c(Cc3cc(F)ccc3F)n2)ncc1F [Compound I-12, 2-(8-(2,5-Difluorobenzyl)-[1,2,4]triazolo[1,5-a]pyrazin-6-yl)-5-fluoropyrimidin-4-ol]
≥ 7.00	≥ 7.00	–	–	–	Cc1ccc(Cc2nc(-c3ncc(F)c(O)n3)cn3ccnc23)cc1F [Compound I-6, 5-Fluoro-2-(8-(3-fluoro-4-methylbenzyl)imidazo[1,2-a]pyrazin-6-yl)pyrimidin-4-ol]
6.00 to 7.00	6.00 to 7.00	≤ 1	1 to 2	≤ 1	Oc1nc(-c2cn3ccnc3c(Cc3cccc(F)c3)n2)ncc1F [Compound I-1, 5-fluoro-2-(8-(3-fluorobenzyl)imidazo[1,2-a]pyrazin-6-yl)pyrimidin-4-ol]
≥ 7.00	≥ 7.00	–	–	–	Cc1c(F)cc(Cc2nc(-c3ncc(F)c(O)n3)cn3ccnc23)cc1F [Compound I-3, 5-Fluoro-2-(8-(3,5-difluoro-4-methylbenzyl)imidazo[1,2-a]pyrazin-6-yl)pyrimidin-4-ol]
